Legend:
[1] = target: recombinant human 11β-HSD type 1 enzyme (Homo sapiens, UniProt P28845); experiment: 11β-HSD Type 1 Enzyme Assay (NADPH fluorescence); format: biochemical; settings: three hour incubation at room temperature, read-out: Human 11-βHSD1 IC50
Procedure: 11β-HSD Type 1 Enzyme Assay
Human 11β-HSD type 1 activity is measured by assaying NADPH production by fluorescence assay. Solid compounds are dissolved in DMSO to a concentration of 10 mM. Twenty microliters of each are then transferred to a column of a 96-well polypropylene Nunc plate where they are further diluted 50-fold followed by subsequent two-fold titration, ten times across the plate with additional DMSO using a Tecan Genesis 200 automated system. Plates are then transferred to a Tecan Freedom 200 system with an attached Tecan Temo 96-well head and an Ultra 384 plate reader. Reagents are supplied in 96-well polypropylene Nunc plates and are dispensed individually into black 96-well Molecular Devices High Efficiency assay plates (40 μL/well capacity) in the following fashion: 9 μL/well of substrate (2.22 mM NADP, 55.5 μM Cortisol, 10 mM Tris, 0.25% Prionex, 0.1% Triton X100), 3 μL/well of water to compound wells or 3 μL to control and standard wells, 6 μL/well recombinant human 11β-HSD type 1 enzyme, 2 μL/well of compound dilutions. […] Final DMSO concentration is 0.5% for all compounds, controls and standards. Plates are then placed on a shaker by the robotic arm of the Tecan for 15 seconds before being covered and stacked for a three hour incubation period at room temperature. Upon completion of this incubation, the Tecan robotic arm removes each plate individually from the stacker and places them in position for addition of 5 μL/well of a 250 μM carbenoxolone solution to stop the enzymatic reaction. Plates are then shaken once more for 15 seconds then placed into an Ultra 384 microplate reader (355EX/460EM) for detection of NADPH fluorescence.

[2] = target: T1, 11β-HSD1 in primary human aortic smooth muscle cells (AoSMC) (Homo sapiens, UniProt P28845); experiment: Human Aortic Smooth Muscle Cell Assay (cortisone to cortisol conversion); format: cell-based; settings: hTNFα-induced 11β-HSD1, cortisol by time resolved immunoassay
T1 construct: containing 12 ng/mL hTNFα to induce expression of 11β-HSD1; endogenous in cells; host or cells: primary human aortic smooth muscle cells (AoSMC), induced with hTNFα
T1 sequence (P28845 whole entry): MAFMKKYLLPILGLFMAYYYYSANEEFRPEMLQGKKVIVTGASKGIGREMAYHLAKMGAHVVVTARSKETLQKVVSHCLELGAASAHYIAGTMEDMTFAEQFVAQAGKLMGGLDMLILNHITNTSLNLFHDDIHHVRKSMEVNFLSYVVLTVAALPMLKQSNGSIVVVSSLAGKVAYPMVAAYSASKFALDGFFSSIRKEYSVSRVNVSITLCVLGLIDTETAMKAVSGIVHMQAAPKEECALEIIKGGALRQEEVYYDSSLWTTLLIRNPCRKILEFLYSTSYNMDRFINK
Procedure: Human Aortic Smooth Muscle Cell Assay
Primary human aortic smooth muscle cells (AoSMC) are cultured in 5% FBS growth medium to a passage number of 6, then pelleted by centrifugation and resuspended at a density of 9×10^4 cells/mL in 0.5% FBS assay medium containing 12 ng/mL hTNFα to induce expression of 11β-HSD1. Cells are seeded into 96-well tissue culture assay plates at 100 μL/well (9×10^3 cells/well) and incubated for 48 hours at 37° C., 5% CO2. Following induction, cells are incubated for 4 hours at 37° C., 5% CO2 in assay medium containing test compounds then treated with 10 μL/well of 10 μM cortisone solubilized in assay medium, and incubated for 16 hours at 37° C., 5% CO2. Medium from each well is transferred to a plate for subsequent analysis of cortisol using a competitive fluorescence resonance time resolved immunoassay. In solution, an allophycocyanin (APC)-cortisol conjugate and free cortisol analyte compete for binding to a mouse anti-cortisol antibody/Europium (Eu)-anti mouse IgG complex. Higher levels of free cortisol result in diminishing energy transfer from the Europium-IgG to the APC-cortisol complex resulting in less APC fluorescence. Fluorescent intensities for Europium and APC are measured using a LJL Analyst AD. Europium and APC excitation is measured using 360 nm excitation and 615 nm and 650 nm emission filters respectively. Time resolved parameters for Europuium were 1000 μs integration time with a 200 μs delay. APC parameters are set at 150 μs integration time with a 50 μs delay. Fluorescent intensities measured for APC are modified by dividing by the Eu fluorescence (APC/Eu). This ratio is then used to determine the unknown cortisol concentration by interpolation using a cortisol standard curve fitted with a 4-parameter logistic equation. These concentrations are then used to determine compound activity by plotting concentration versus % inhibition, fitting with a 4-parameter curve and reporting the IC50.

cortisone conversion = experiment: Acute In Vivo Cortisone Conversion Assay; design: species or system male C57BL/6 mice; settings: mice, oral dose of 10 mg/kg, cortisone challenge 30 mg/kg s.c. after 16 hours, serum cortisol by LC-MS/MS
Procedure: Acute In Vivo Cortisone Conversion Assay
In general, compounds are dosed orally into mice, the mice are challenged with a subcutaneous injection of cortisone at a set timepoint after compound injection, and the blood of each animal is collected some time later. Separated serum is then isolated and analyzed for levels of cortisone and cortisol by LC-MS/MS, followed by calculation of mean cortisol and percent inhibition of each dosing group. Specifically, male C57BL/6 mice are obtained from Harlan Sprague Dawley at average weight of 25 grams. Exact weights are taken upon arrival and the mice randomized into groups of similar weights. Compounds are prepared in 1% w-w HEC, 0.25% w-w polysorbate 80, 0.05% w-w Dow Corning antifoam #1510-US at various doses based on assumed average weight of 25 grams. Compounds are dosed orally, 200 μl per animal, followed by a subcutaneous dose, 200 μl per animal, of 30 mg/kg cortisone at 1 to 24 hours post compound dose. At 10 minutes post cortisone challenge, each animal is euthanized for 1 minute in a CO2 chamber, followed by blood collection via cardiac puncture into serum separator tubes. Once fully clotted, tubes are spun at 2500×g, 4° C. for 15 minutes, the serum transferred to wells of 96-well plates (Corning Inc, Costar #4410, cluster tubes, 1.2 ml, polypropylene), and the plates are frozen at −20° C. until analysis by LC-MS/MS. For analysis, serum samples are thawed and the proteins are precipitated by the addition of acetonitrile containing d-4-cortisol internal standard. Samples are vortex mixed and centrifuged. The supernatant is removed and dried under a stream of warm nitrogen. Extracts are reconstituted in methanol/water (1:1) and injected onto the LC-MS/MS system. The levels of cortisone and cortisol are assayed by selective reaction monitoring mode following positive ACPI ionization on a triple quadrupole mass spectrophotometer.

recombinant human 11β-HSD type 1 enzyme, sequence (P28845 whole entry): as above

| SMILES | IC50 [1] | IC50 [2] | % Inhibition after 16 hours (dose of 10 (mg/kg)) (cortisone conversion) |
| --- | --- | --- | --- |
| O=C1[C@H](Cc2c(Cl)cc(-c3ccc(N4CCOCC4)nc3F)cc2Cl)CCN1C1CCc2[nH]cnc2C1 (stereo partly drawn) [Example 32, (R)-3-[2,6-Dichloro-4-(2-fluoro-6-morpholin-4-yl-pyridin-3-yl)-benzyl]-1-(4,5,6,7-tetrahydro-1H-benzoimidazol-5-yl)-pyrrolidin-2-one] | 175 nM | 3 nM | 59.2% |
| O=C1C(Cc2c(Cl)cc(-c3ccc(F)cc3)cc2Cl)CCN1C1CCc2[nH]cnc2C1 (stereo not shown) [Example 15, 3-(3,5-Dichloro-4′-fluoro-biphenyl-4-ylmethyl)-1-(4,5,6,7-tetrahydro-1H-benzoimidazol-5-yl)-pyrrolidin-2-one] | 214 nM | 3.2 nM |  |
| O=C1C(Cc2c(Cl)cc(-c3ccc(Cl)cc3)cc2Cl)CCN1C1CCc2nc[nH]c2C1 (stereo not shown) [Example 1, 1-(4,5,6,7-Tetrahydro-3H-benzoimidazol-5-yl)-3-(3,5,4′-trichloro-biphenyl-4-ylmethyl)-pyrrolidin-2-one] | 325 nM | 6.8 nM |  |

The next molecules have a lower IC50 [1] than those just listed; values first:

| IC50 [1] | IC50 [2] | SMILES | % Inhibition after 16 hours (dose of 10 (mg/kg)) (cortisone conversion) |
| --- | --- | --- | --- |
| 75.4 nM | 0.6 nM | O=C1[C@H](Cc2c(Cl)cc(-c3ccc(N4CCOCC4)cc3)cc2Cl)CCN1C1CCc2[nH]cnc2C1 (stereo partly drawn) [Example 29, (R)-3-(3,5-Dichloro-4′-morpholin-4-yl-biphenyl-4-ylmethyl)-1-(4,5,6,7-tetrahydro-1H-benzoimidazol-5-yl)-pyrrolidin-2-one] | 52% |
| 143 nM | 4.5 nM | O=C(c1ccc(-c2cc(Cl)c(C[C@@H]3CCN(C4CCc5nc[nH]c5C4)C3=O)c(Cl)c2)cc1)N1CCC(C(F)(F)F)CC1 (stereo partly shown) [Example 42, 3-[R]-[3,5-Dichloro-4′-(4-trifluoromethyl-piperidine-1-carbonyl)-biphenyl-4-ylmethyl]-1-(4,5,6,7-tetrahydro-3H-benzoimidazol-5-yl)-pyrrolidin-2-one] | 98.4% |

Source: patent US7820659B2, “Cyclohexylimidiazole lactam derivatives as inhibitors of 11-β-hydroxysteroid dehydrogenase 1” (Eli Lilly and Company, priority 2006, dated 2010)
